This note sets out measurements from patent US20240226017A1, “ERODIBLE TABLET” (Eli Lilly and Company, priority 2021, published 2024).

Read-outs that look alike come from different tables or passages of the source. Marks after values point to notes of the source that are not given here.

Data set [1] is described as follows: in vivo. The arrangement: species or system cynomolgus monkeys. The following applies: male, cynomolgus monkey, iv. As to the method:
Plasma concentrations of Compound 1 are determined by a LC/MS method that measures intact Compound 1, peptide plus linked time extension. For each assay, Compound 1 and an IS, are extracted from 100% monkey plasma. This procedure involves initially thoroughly mixing the plasma sample (50 μl) with acetonitrile:water:formic acid (50:50:0.1; 25 μl) plus 2-propanol:methanol (50:50; 250 μl). Two distinct layers are formed upon centrifugation with Compound 1 and the IS contained in the supernatant layer. After moving 200-μL of the supernatant layer to the Sirocco Protein Precipitation plate, the plate is centrifuged (conditions). Next 600-μL of Water:Formic (100:2; 600 μl) are added to each well of the Sirocco plate, and the plate is vortexed, sealed, and centrifuged. After SPE plate conditioning, the sample from the Sirocco plate (700 μl) is transferred to a Waters, SPE plate, and centrifuged. The SPE plate, after washing, is eluted with acetonitrile:formic acid (100:2; 80 μl) into Invitrosol:water:water:formic acid 100:2 (35:15:50; 100 μl). The final sample (25 μl) is loaded onto a Waters, ACQUITY UPLC BEH C18 Column, 130 Å, (2.1 mm×100 mm, 1.7 μm). The column effluent is injected into a Sciex API 5500 mass spectrometer for detection and quantitation. Male cynomolgus monkeys are administered a single intravenous dose (0.05 mg/kg) or oral formulation (10 mg/tablet) of Compound 1. […]

Data set [2] is described as follows: in vivo. The arrangement: species or system cynomolgus monkeys. The following applies: cynomolgus monkey, iv. On the procedure: Plasma concentrations of Compound 2 are determined by a LC/MS method. Compound 2 and an internal standard (IS) are extracted from 100% monkey plasma (25 μL) using 50 mM ammonium bicarbonate. After centrifugation, the supernatant is transferred and 2B10 biotinylated antibody along with 5C9 biotinylated antibody (5 μL each) are added. The samples are then centrifuged, T1 Streptavidin beads are added (20 μL) for 30 minutes, and the analyte is eluted from the beads with 30% acetonitrile with 5% formic acid in water followed by mixing. A final sample (10 μL) containing 31% acetonitrile in 10% formic acid is loaded onto a Supelco Analytical Discovery BIO Wide Pore C5-3, 5 cm×0.1 mm for LC/MS analysis. The plasma PK of Compound 2 is evaluated in male cynomolgus monkeys following a single IV dose (50 nmol/kg). Blood samples are collected over 504 hours. Plasma is harvested from blood samples by centrifugation and stored frozen until analysis. Plasma concentrations of Compound 2 are detected through 504 hours post-dose. PK parameters for one animal are extrapolated using the concentration versus time data up to 72 hours post-dose.

On the set-up of data set [3]: species or system cynomolgus monkeys. The following applies: cynomolgus monkey, in vivo, po. On the procedure: High resolution liquid chromatography/mass spectrometry (HR-LC/MS) is used to measure the concentrations of Compound 2 in cynomolgus monkey plasma. Standards and controls are prepared in cynomolgus monkey plasma using Compound 2, and any dilutions required to bring samples into the quantitative range are also performed in control cynomolgus monkey plasma. To control assay variability, an IS is added to all the standards and samples.
For Studies with Examples 14, 15, 16, 17, 18, 19: Compound 2 and the IS are extracted from monkey plasma (50 μL) by protein precipitation using isopropyl alcohol and methanol (50:50 v/v). The samples are then centrifuged (4000 rpm for 10 minutes) and the supernatant is transferred to a Siricco Protein Precipitation Plate. After centrifugation (4000 rpm for 20 minutes), the samples are loaded on a Sep-Pak tC18 SPE microelution plate that is conditioned with 2% formic acid in water. […]
Pharmacokinetic (PK) parameters of Compound 2 are determined after a single 10-mg oral dose of Compound 2 in different formulations to male and female cynomolgus monkeys. […] Plasma concentrations of Compound 2 are detected through 504 hours post-dose.

For data set [4] the following is noted: human, in vivo. As to the method: A multiple-ascending dose study is conducted to study the safety, tolerability, and pharmacokinetics of erodible tablets containing Compound 2 administered as 3 consecutive, once-daily oral doses in healthy participants. Tablets are prepared having the composition set forth in Table 18 below using a direct compression process as described for Example 22 in Table 7 above. Average solid fraction of tablets was 0.90. The Compound 2 oral doses for this study are summarized in the following 4 “dose cohorts”: • Cohort 1, 4-mg dose: 1 tablet of 4 mg Compound 2+300 mg SNAC • Cohort 2, 8-mg dose:2 tablets of 4 mg Compound 2+300 mg SNAC • Cohort 3, 12-mg dose: 1 tablet of 12 mg Compound 2+300 mg SNAC • Cohort 4, 24-mg dose:2 tablets of 12 mg Compound 2+300 mg SNAC Sufficient participants are randomly assigned to study intervention to ensure approximately 10 evaluable participants (8 receiving Compound 2 and 2 receiving placebo) from each of 4 dose cohorts complete the study. In each cohort, eligible participants are randomly assigned to receive 3 once-daily doses of either Compound 2 or placebo. Data for the 4 cohorts are provided in Table 18 below, along with a comparison to IV data from a separate study having similar protocol design and conducted at the same clinical site.

As to `CC[C@H](C)[C@H](NC(=O)[C@H](CC(C)C)NC(=O)[C@](C)(Cc1ccc(O)cc1)NC(=O)[C@@H](CCC(=O)O)NC(=O)[C@@H](NC(=O)[C@H](Cc1ccccc1)NC(=O)[C@H](CCC(=O)O)NC(=O)C(C)(C)NC(=O)[C@H](CCC(N)=O)NC(=O)[C@H](C)NC(=O)[C@H](CCCCNC(=O)COCCOCCNC(=O)COCCOCCNC(=O)CC[C@H](NC(=O)CCCCCCCCCCCCCCCCC(=O)O)C(=O)O)NC(=O)[C@H](CCCN)NC(=O)[C@H](CC(=O)O)NC(=O)[C@H](CC(C)C)NC(=O)[C@](C)(CC(C)C)NC(=O)[C@@H](NC(=O)[C@H](CO)NC(=O)[C@H](Cc1ccncc1)NC(=O)[C@H](CC(=O)O)NC(=O)[C@H](CO)NC(=O)[C@@H](NC(=O)[C@](C)(Cc1ccccc1F)NC(=O)[C@@H](NC(=O)CNC(=O)[C@H](CCC(=O)O)NC(=O)C(C)(C)NC(=O)[C@@H](N)Cc1ccc(O)cc1)[C@@H](C)O)[C@@H](C)O)[C@@H](C)CC)[C@@H](C)CC)C(=O)N[C@@H](CCC(=O)O)C(=O)NCC(=O)NCC(=O)N1CCC[C@H]1C(=O)N[C@@H](CO)C(=O)N[C@@H](CO)C(=O)NCC(=O)N[C@@H](C)C(=O)N1CCC[C@H]1C(=O)N1CCC[C@H]1C(=O)N1CCC[C@H]1C(=O)N[C@@H](CO)C(N)=O` [Compound 2, Y-Aib-EGT-αMeF(2F)-TSD-4Pal-SI-αMeL-LD-Orn-K((2-[2-(2-Amino-ethoxy)-ethoxy]-acetyl)2-(γ-Glu)-CO-(CH2)16-CO2H)AQ-Aib-EFI-(D-Glu)-αMeY-LIEGGPSSGAPPPS-NH2], the clearance in the data set “in vivo [1]” (CL) is 13 mL/day/kg. The half-life in the data set “in vivo [1]” (T1/2) is 96 h. Moreover, the “Plasma concentrations detected through (post-dose)” value in the data set “in vivo [2]” is 504 h. For the same compound, in the data set “in vivo [2]” (male, 50 nmol/kg), the AUC0-inf turned out to be 84.232 µM·h, the AUC(0-inf) came to 84.2 µM·h, the CL was 14.2 mL/day/kg and the clearance was 14.2 mL/day/kg. In addition, in “in vivo [2]” (male, 50 nmol/kg, Cmax), the Cmax is 1050 nM. The half-life in the data set “in vivo [2]” (male, 50 nmol/kg, T1/2) is 84 h. In addition, the “Plasma concentrations detected through (post-dose)” value in data set [3] is 504 h. Moreover, in data set [4] (0.5 mg), the “Oral Bioavailability Based on AUC (0-168)” value is 100% and the “Oral Bioavailability Based on AUC (0-∞)” value was 100%. In data set [4] (iv), the “Dose-Normalized AUC(0-168)” value is 22800^e ^ ng · h/mL · mg and the “Dose-Normalized AUC(0-∞)” value is 49200^e ^ ng · h/mL · mg.
